These results are taken from patent US8148380B2, “Antibacterial amide and sulfonamide substituted heterocyclic urea compounds” (priority 2007, dated 2012).

In brackets after ≈: the same amount, converted by molar mass.

Format in all cases: cell-based
Assay [1] can be described thus: MIC90 against resistant Gram-positive bacteria. How it is done:
(§1) Compounds of the present invention were tested for antibacterial activity against a variety of pathogenic organisms including S. aureus, S. pneumoniae, S. pyogenes, E. faecalis, H. influenza and M. catarrhalis using a standard broth microdilution method to determine their minimum inhibitory concentrations (MICs). All compounds were tested using standard methods in accordance with CLSI guidelines (Clinical and Laboratory Standards Institute). Compounds described in Examples 1, 3-6, 8, 10-17, 19-21, 24-31, 33, 36, 38, 40, 54, 56-57, 59-71, 74-105, 107-108, 110-112, 114, 117-120, 122-142, 144-159, 162-179, 181-182, 184-225, 227-242, 244-319, 321-355, and 357-475 had MIC's of <0.12-4.0 μg/mL against some strains of the major Gram-positive organisms S. aureus, S. pneumoniae, S. pyogenes, and E. faecalis. […] Compounds described in Examples 11, 54, 60, and 208 shown to be bactericidal in S. aureus, E. faecalis, E. faecium, S. pyogenes, S. epidermidis and S. pneumoniae.

The test system of assay [2] is MRSA, VISA, linezolid-resistant S. aureus, resistant S. epidermidis, S. pyogenes, S. pneumoniae, E. faecalis (VRE) and E. faecium. The experiment in a line: MIC against drug-resistant Gram-positive strains. As to conditions: MRSA, VISA, linezolid-resistant S. aureus, resistant S. epidermidis, S. pyogenes, S. pneumoniae, E. faecalis (VRE), E. faecium. How it is done:
as §1
(§2) Compounds of the present invention were not compromised by existing resistance to all drug classes tested, including β-lactams, glycopeptides, oxazolidinones, macrolides, and fluoroquinolones. In particular, compounds described in Examples 11, 54, 60, and 208 were active against methicillin-(oxacillin-) resistant S. aureus (MRSA), vancomycin-intermediate S. aureus (VISA), linezolid-resistant S. aureus, methicillin-(oxacillin-) resistant and mupirocin resistant S. epidermidis, macrolide-resistant S. pyogenes, macrolide-, penicillin-, and levofloxacin-resistant S. pneumoniae, vancomycin-, macrolide-, and ciprofloxacin-resistant E. faecalis (VRE) and vancomycin-, macrolide-, and ciprofloxacin-resistant E. faecium.

A short description of assay [3]: MIC against drug-resistant Gram-positive strains. As to conditions: read-out: MIC in clinically relevant resistant strains. How it is done:
as §1, §2

Assay [4] has as its system S. aureus, E. faecalis, E. faecium, S. pyogenes, S. epidermidis and S. pneumoniae. Put plainly: Bactericidal activity. How it is done: as §1

A word on the MIC90: it is an inhibitory concentration at the 90% level, which refers to growth in some studies and to a panel of isolates in others. A higher MIC90 goes with lower susceptibility. A word on the MIC: it is the least concentration at which growth counts as inhibited. On to `CN(Cc1csc(NC(=O)NCc2cccc(F)c2)n1)C(=O)c1cc(O)nnc1Cl` [Example 208, 3-Chloro-6-hydroxy-pyridazine-4-carboxylic acid {2-[3-(3-fluoro-benzyl)-ureido]-thiazol-4-ylmethyl}-methyl-amide], for which, in assay [1], the MIC90 lay within 1 to 4 µg/mL (≈ 2.22 to 8.87 µM). In addition, in assay [2], the “activity against drug-resistant strains” value is given as “active”. Also, in assay [3], the MIC was 0.25 to 4 µg/mL (≈ 0.554 to 8.87 µM). Besides, the bactericidal entry in assay [4] is listed as “bactericidal”.

With `Cc1noc(C)c1C(=O)N(C)C(C#N)c1csc(NC(=O)NCc2cccc(F)c2)n1` (stereo not drawn) [Example 214, 3,5-Dimethyl-isoxazole-4-carboxylic acid (cyano-{2-[3-(3-fluoro-benzyl)-ureido]-thiazol-4-yl}-methyl)-methyl-amide], in assay [1], the MIC90 lay in the range of 1 to 4 µg/mL (≈ 2.26 to 9.04 µM).

In assay [1], `Cc1noc(C)c1C(=O)N(C)Cc1csc(NC(=O)NCc2ccc(Cl)s2)n1` [Example 107, N-((2-(3-((5-chlorothiophen-2-yl)methyl)ureido)thiazol-4-yl)methyl)-N,3,5-trimethylisoxazole-4-carboxamide] showed an MIC90 of 1 to 4 µg/mL (≈ 2.27 to 9.09 µM).

In turn, `Cc1noc(C)c1C(=O)N(C)Cc1csc(NC(=O)NCc2cccc(F)c2)n1` [Example 54, N-((2-(3-(3-fluorobenzyl)ureido)thiazol-4-yl)methyl)-N,3,5-trimethylisoxazole-4-carboxamide] came in with an MIC90 in assay [1] of 1 to 4 µg/mL (≈ 2.4 to 9.58 µM). Besides, the “activity against drug-resistant strains” value in assay [2] was “active”. Further, in assay [3], the MIC was 0.25 to 4 µg/mL (≈ 0.599 to 9.58 µM). Moreover, the bactericidal result in assay [4] is on record as “bactericidal”.

Compound `Cc1ncnc(C)c1C(=O)N(C)Cc1csc(NC(=O)NCc2cccc(F)c2)n1` [Example 96, N-((2-(3-(3-fluorobenzyl)ureido)thiazol-4-yl)methyl)-N,4,6-trimethylpyrimidine-5-carboxamide] gave an MIC90 in assay [1] of 1 to 4 µg/mL (≈ 2.33 to 9.34 µM).

`Cc1noc(C)c1C(=O)N(C)Cc1csc(NC(=O)NCc2ccc(Cl)c(Cl)c2)n1` [Example 11, N-((2-(3-(3,4-dichlorobenzyl)ureido)thiazol-4-yl)methyl)-N,3,5-trimethylisoxazole-4-carboxamide]: the “activity against drug-resistant strains” value in assay [2] is on record as “active”. Also, the MIC in assay [3] was 0.25 to 4 µg/mL (≈ 0.534 to 8.54 µM). Also, the bactericidal entry in assay [4] is reported as “bactericidal”.

In assay [1], `CCc1noc(C)c1C(=O)N(C)Cc1csc(NC(=O)NCc2cccc(F)c2)n1` [Example 60, 3-ethyl-N-((2-(3-(3-fluorobenzyl)ureido)thiazol-4-yl)methyl)-N,5-dimethylisoxazole-4-carboxamide] came in with an MIC90 of 1 to 4 µg/mL (≈ 2.32 to 9.27 µM). In addition, in assay [2], the “activity against drug-resistant strains” value is “active”. In addition, the MIC in assay [3] was in the range of 0.25 to 4 µg/mL (≈ 0.579 to 9.27 µM). Also, the bactericidal result in assay [4] is listed as “bactericidal”.
